Experimental data: patent US20230183245A1, “IMIDAZO-PYRIMIDONE COMPOUNDS AS PESTICIDES” (BASF SE, priority 2020, published 2023)
Like-named read-outs stand apart in the source and are kept apart here.

Columns and labels:
Format in all cases: in vivo
[1] = tested on: Anthonomus grandis; assay: Boll weevil (Anthonomus grandis) microtiter diet test; settings: 120 h, read-out: Egg and larval mortality in comparison with untreated controls
Method: (§1) If not otherwise specified, the test solutions are prepared as follows: The active compound is dissolved at the desired concentration in a mixture of 1:1 (vol:vol) distilled water: acteone. The test solution is prepared at the day of use. Test solutions are prepared in general at concentrations of 2500 ppm, 1415 ppm and 800 ppm (wt/vol).
(§2) For evaluating control of boll weevil (Anthonomus grandis) the test unit consisted of 96-well-microtiter plates containing an insect diet and 5-10 A. grandis eggs. The compounds were formulated using a solution containing 75% v/v water and 25% v/v DMSO. Different concentrations of formulated compounds were sprayed onto the insect diet at 5 µl, using a custom built micro atomizer, at two replications. After application, microtiter plates were incubated at about 25 ± 1° C. and about 75 ± 5% relative humidity for 5 days. Egg and larval mortality was then visually assessed.

[2] = tested on: Heliothis virescens; assay: Tobacco budworm (Heliothis virescens) microtiter diet test; settings: 120 h, read-out: Egg and larval mortality in comparison with untreated controls
Method: as §1
as §2, with “of tobacco budworm (Heliothis virescens)” for “of boll weevil (Anthonomus grandis)”, “and 15-25 H. virescens” for “and 5-10 A. grandis”, “at 10” for “at 5”, “about 28” for “about 25”, “about 80” for “about 75”

[3] = tested on: Myzus persicae; assay: Green peach aphid (Myzus persicae) systemic artificial diet test; settings: 72 h, read-out: Aphid mortality in comparison with untreated controls
Method: as §1
For evaluating control of green peach aphid (Myzus persicae) through systemic means the test unit consisted of 96-well-microtiter plates containing liquid artificial diet under an artificial membrane. The compounds were formulated using a solution containing 75% v/v water and 25% v/v DMSO. Different concentrations of formulated compounds were pipetted into the aphid diet, using a custom built pipetter, at two replications. After application, 5 - 8 adult aphids were placed on the artificial membrane inside the microtiter plate wells. The aphids were then allowed to suck on the treated aphid diet and incubated at about 23 ± 1° C. and about 50 ± 5 % relative humidity for 3 days. Aphid mortality and fecundity was then visually assessed.

[4] = tested on: Megoura viciae; assay: Vetch aphid (Megoura viciae) broad bean leaf disk test; settings: foliar, 120 h, 5 days, adult aphids on treated leaf disks, read-out: Aphid mortality in comparison with untreated controls
Method: as §1
For evaluating control of vetch aphid (Megoura viciae) through contact or systemic means the test unit consisted of 24-well-microtiter plates containing broad bean leaf disks.
The compounds were formulated using a solution containing 75% v/v water and 25% v/v DMSO. Different concentrations of formulated compounds were sprayed onto the leaf disks at 2.5 µl, using a custom built micro atomizer, at two replications. After application, the leaf disks were air-dried and 5 - 8 adult aphids placed on the leaf disks inside the microtiter plate wells. The aphids were then allowed to suck on the treated leaf disks and incubated at about 23 ± 1° C. and about 50 ± 5% relative humidity for 5 days. Aphid mortality and fecundity was then visually assessed.

[5] = tested on: Aedes aegypti; assay: whole plant or invertebrate; settings: 48 h, 2 days, freshly hatched larvae, read-out: Larval mortality in comparison with untreated controls
Method: as §1
For evaluating control of yellow fever mosquito (Aedes aegypti) the test unit consisted of 96-well-microtiter plates containing 200 µl of tap water per well and 5-15 freshly hatched A. aegypti larvae. The active compounds were formulated using a solution containing 75% (v/v) water and 25% (v/v) DMSO. Different concentrations of formulated compounds or mixtures were sprayed onto the […] at 2.5 µl, using a custom built micro atomizer, at two replications. After application, microtiter plates were incubated at 28 + 1° C., 80 + 5% RH for 2 days. Larval mortality was then visually assessed.

[6] = tested on: Nezara viridula; assay: Green soldier stink bug (Nezara viridula) soybean pod spray test; settings: 120 h, 5 days, late 3rd instar, read-out: Percent mortality in comparison with untreated controls
Method: as §1
The active compound is dissolved at the desired concentration in a mixture of 1:1 (vol:vol) distilled water: aceteone. Surfactant (Kinetic) is added at a rate of 0.01% (vol/vol).The test solution is prepared at the day of use. Soybean pods are placed in 90 × 50 mm glass Petri dishes lined with moistened filter paper and inoculated with ten late 3rd instar N. viridula. Using a hand atomizer, an approximately 2 ml solution is sprayed into each Petri dish. Treated set-up is kept at about 25-26° C. and relative humidity of about 65-70%. Percent mortality is recorded after 5 days.

[7] = tested on: Trialeurodes vaporariorum; assay: Greenhouse whitefly (Trialeurodes vaporariorum) egg plant leaf disk test; settings: foliar, 144 h, 6 days, read-out: Mortality of hatched crawlers in comparison with untreated controls
Method: as §1
For evaluating control of Greenhouse Whitefly (Trialeurodes vaporariorum) the test unit consisted of 96-well-microtiter plates containing a leaf disk of egg plant leaf disk with white fly eggs. The compounds or mixtures were formulated using a solution containing 75% water and 25% DMSO. Different concentrations of formulated were sprayed onto the insect diet at 2.5 µl, using a custom built micro atomizer, at two replications. After application, microtiter plates were incubated at 23 ± 1° C., 65 ± 5% RH for 6 days. Mortality of hatched crawlers was then visually assessed.

[8] = 3 days, adult aphids on treated diet
[9] = 800 ppm, 3 days, adult aphids on treated diet

CCS(=O)(=O)c1cc(/C=N/OC)cnc1-c1cn2c(=O)n(C)c(C(F)(F)F)cc2n1 [Compound C-1]
> 75%: mortality at 2500 ppm ([1]; 5 days) | mortality at 2500 ppm ([2]; 5 days) | mortality at 2500 ppm [3, 8] | mortality at 2500 ppm [4] | mortality at 800 ppm [5] | mortality at 800 ppm [6]

CCS(=O)(=O)c1cc(/C=N/O)cnc1-c1cn2c(=O)n(C)c(C(F)(F)F)cc2n1 [Compound C-2]
> 75%: mortality at 2500 ppm ([1]; 5 days) | mortality at 2500 ppm ([2]; 5 days) | mortality at 2500 ppm [3, 8]

CCO/N=C/c1cnc(-c2cn3c(=O)n(C4CC4)c(C(F)(F)F)cc3n2)c(S(=O)(=O)CC)c1 [Compound C-14]
> 75%: mortality at 800 ppm ([1]; 800 ppm, 5 days) | mortality at 800 ppm ([2]; 800 ppm, 5 days) | mortality at 800 ppm [3, 9] | mortality at 800 ppm [5] | mortality at 800 ppm [6]

CCS(=O)(=O)c1cc(/C(C#N)=N/O)cnc1-c1cn2c(=O)n(C3CC3)c(C(F)(F)F)cc2n1 [Compound C-8, (2Z)-2-[6-[6-cyclopropyl-5-oxo-7-(trifluoromethyl)imidazo[1,2-c]pyrimidin-2-yl]-5-ethylsulfonyl-3-pyridyl]-2-hydroxyimino-acetonitrile]
> 75%: mortality at 800 ppm [3, 9]

CCS(=O)(=O)c1cc(C(C)(C)C#N)cnc1-c1cn2c(=O)n(CC3CC3)c(C(F)(F)F)cc2n1 [Compound C-7]
> 75%: mortality at 800 ppm ([1]; 800 ppm, 5 days) | mortality at 800 ppm ([2]; 800 ppm, 5 days) | mortality at 800 ppm [3, 9] | mortality at 800 ppm [5] | mortality at 800 ppm [6]

CCS(=O)(=O)c1cc(/C=N/OCC(F)(F)F)cnc1-c1cn2c(=O)n(C3CC3)c(C(F)(F)F)cc2n1 [Compound C-16]
> 75%: mortality at 800 ppm ([1]; 800 ppm, 5 days) | mortality at 800 ppm ([2]; 800 ppm, 5 days) | mortality at 800 ppm [3, 9] | mortality at 800 ppm [7]

CCS(=O)(=O)c1cc(/C(C#N)=N/OCC2CC2)cnc1-c1cn2c(=O)n(C3CC3)c(C(F)(F)F)cc2n1 [Compound C-11]
> 75%: mortality at 800 ppm ([1]; 800 ppm, 5 days) | mortality at 800 ppm ([2]; 800 ppm, 5 days) | mortality at 800 ppm [3, 9] | mortality at 800 ppm [7] | mortality at 800 ppm [5] | mortality at 800 ppm [6]

CCS(=O)(=O)c1cc(/C=N/OC(C)C)cnc1-c1cn2c(=O)n(C3CC3)c(C(F)(F)F)cc2n1 [Compound C-15]
> 75%: mortality at 800 ppm ([1]; 800 ppm, 5 days) | mortality at 800 ppm ([2]; 800 ppm, 5 days) | mortality at 800 ppm [3, 9] | mortality at 800 ppm [7] | mortality at 800 ppm [6]

CCS(=O)(=O)c1cc(C2(C#N)CC2)cnc1-c1cn2c(=O)n(C3CC3)c(C(F)(F)F)cc2n1 [Compound C-6, 1-[6-[6-cyclopropyl-5-oxo-7-(trifluoromethyl)imidazo[1,2-c]pyrimidin-2-yl]-5-ethylsulfonyl-3-pyridyl]cyclopropanecarbonitrile]
> 75%: mortality at 800 ppm ([1]; 800 ppm, 5 days) | mortality at 800 ppm ([2]; 800 ppm, 5 days) | mortality at 800 ppm [7] | mortality at 800 ppm [5] | mortality at 800 ppm [6]

CCS(=O)(=O)c1cc(C(C)(C)C#N)cnc1-c1cn2c(=O)n(C)c(C(F)(F)F)cc2n1 [Compound C-5, 2-[5-ethylsulfonyl-6-[6-methyl-5-oxo-7-(trifluoromethyl)imidazo[1,2-c]pyrimidin-2-yl]-3-pyridyl]-2-methyl-propanenitrile]
> 75%: mortality at 2500 ppm ([1]; 5 days) | mortality at 2500 ppm ([2]; 5 days) | mortality at 2500 ppm [3, 8] | mortality at 2500 ppm [7] | mortality at 800 ppm [6]

CCS(=O)(=O)c1cc(C2=NOC3(CCCC3)C2)cnc1-c1cn2c(=O)n(C3CC3)c(C(F)(F)F)cc2n1 [Compound C-13, 6-cyclopropyl-2-[3-ethylsulfonyl-5-(1-oxa-2-azaspiro[4.4]non-2-en-3-yl)-2-pyridyl]-7-(trifluoromethyl)imidazo[1,2-c]pyrimidin-5-one]
> 75%: mortality at 800 ppm [1] | mortality at 800 ppm [2] | mortality at 800 ppm [3] | mortality at 800 ppm [7] | mortality at 800 ppm [5]

CCS(=O)(=O)c1cc(C(C)(C)C#N)cnc1-c1cn2c(=O)n(C3CC3)c(C(F)(F)F)cc2n1 [Compound C-4]
> 75%: mortality at 2500 ppm ([1]; 5 days) | mortality at 2500 ppm ([2]; 5 days) | mortality at 800 ppm [3, 9] | mortality at 2500 ppm [3, 8] | mortality at 2500 ppm [4] | mortality at 800 ppm [7] | mortality at 2500 ppm [7] | mortality at 800 ppm [5] | mortality at 800 ppm [6]

CCS(=O)(=O)c1cc(/C(C#N)=N/OCC#N)cnc1-c1cn2c(=O)n(C3CC3)c(C(F)(F)F)cc2n1 [Compound C-12]
> 75%: mortality at 800 ppm ([1]; 800 ppm, 5 days) | mortality at 800 ppm [3, 9] | mortality at 800 ppm [5]

CCS(=O)(=O)c1cc(/C=N/OCC(F)(F)F)cnc1-c1cn2c(=O)n(C)c(C(F)(F)F)cc2n1 [Compound C-3, 2-[3-ethylsulfonyl-5-[(E)-2,2,2-trifluoroethoxyiminomethyl]-2-pyridyl]-6-methyl-7-(trifluoromethyl)imidazo[1,2-c]pyrimidin-5-one]
> 75%: mortality at 2500 ppm ([1]; 5 days) | mortality at 2500 ppm ([2]; 5 days) | mortality at 2500 ppm [3, 8] | mortality at 2500 ppm [4] | mortality at 800 ppm [5] | mortality at 800 ppm [6]

CCS(=O)(=O)c1cc(/C(C#N)=N/OCC(F)(F)F)cnc1-c1cn2c(=O)n(C3CC3)c(C(F)(F)F)cc2n1 [Compound C-10]
> 75%: mortality at 800 ppm ([1]; 800 ppm, 5 days) | mortality at 800 ppm ([2]; 800 ppm, 5 days) | mortality at 800 ppm [3, 9] | mortality at 800 ppm [5] | mortality at 800 ppm [6]

CCS(=O)(=O)c1cc(/C(C#N)=N/OC)cnc1-c1cn2c(=O)n(C3CC3)c(C(F)(F)F)cc2n1 [Compound C-9]
> 75%: mortality at 800 ppm ([1]; 800 ppm, 5 days) | mortality at 800 ppm ([2]; 800 ppm, 5 days) | mortality at 800 ppm [3, 9] | mortality at 800 ppm [5] | mortality at 800 ppm [6]

CCS(=O)(=O)c1cc(/C=N/O)cnc1-c1cn2c(=O)n(C3CC3)c(C(F)(F)F)cc2n1 [Compound C-23, (3E)-6-[6-cyclopropyl-5-oxo-7-(trifluoromethyl)imidazo[1,2-c]pyrimidin-2-yl]-5-ethylsulfonyl-pyridine-3-carbaldehyde oxime]
> 75%: mortality at 800 ppm [3, 9] | mortality at 800 ppm [6]
